Measured values published in paper PMC8226672, “Trimethoxylated Halogenated Chalcones as Dual Inhibitors of MAO-B and BACE-1 for the Treatment of Neurodegenerative Disorders” (Pharmaceutics, 2021).
In brackets after ≈: the same amount, converted by molar mass. Read-outs that look alike come from different tables or passages of the source.

What was measured:
β-secretase (BACE-1) = biological target: T1, β-secretase (BACE-1) (Homo sapiens, UniProt P56817); assay: BACE-1 inhibition (β-secretase assay kit, fluorescence); assay type: biochemical; details: for remaining activity at 10 µM: read-out: Residual Activity (%) BACE-1; for IC50: reference compounds after preincubation with enzymes for 30 min
T1 construct: purchased
T1 sequence (P56817 46-501): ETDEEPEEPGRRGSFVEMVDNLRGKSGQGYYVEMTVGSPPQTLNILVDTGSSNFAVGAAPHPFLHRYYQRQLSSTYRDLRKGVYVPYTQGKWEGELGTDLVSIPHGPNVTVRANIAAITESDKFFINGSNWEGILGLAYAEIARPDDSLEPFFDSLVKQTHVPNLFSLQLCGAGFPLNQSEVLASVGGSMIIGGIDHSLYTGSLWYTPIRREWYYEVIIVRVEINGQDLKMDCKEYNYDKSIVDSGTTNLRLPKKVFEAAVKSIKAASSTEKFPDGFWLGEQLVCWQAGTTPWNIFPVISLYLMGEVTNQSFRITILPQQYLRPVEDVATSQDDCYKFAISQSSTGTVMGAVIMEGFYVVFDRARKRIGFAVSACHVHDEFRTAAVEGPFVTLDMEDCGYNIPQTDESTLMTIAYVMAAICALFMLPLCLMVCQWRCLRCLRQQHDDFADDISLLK
Method: (§1) MAO events were assessed with recombinant MAO-A and MAO-B, as well as the substrates kynuramine (0.06 mM) and benzylamine (0.3 mM). […] The IC50 value of CH5 for BACE-1 was also analyzed.
(§2) The inhibitory actions of the six molecules against MAO-A, MAO-B, and BACE-1 were first tested at 10 µM. Initially, the IC50 values of the compounds for MAOs were calculated.

[1] = Parallel artificial membrane permeability assay (PAMPA) for BBB permeability
Text: (§6) The CNS bioavailability of the molecules was confirmed by a parallel artificial membrane permeability assay (PAMPA) by Di et al. [61].

recombinant MAO-A = biological target: T2, recombinant MAO-A (Homo sapiens, UniProt P21397); assay: MAO-A inhibition (recombinant enzyme, kynuramine substrate); assay type: biochemical; details: for remaining activity at 10 µM: read-out: Residual Activity (%) MAO-A; for IC50: reference compounds after preincubation with enzymes for 30 min
T2 sequence (P21397 1-527): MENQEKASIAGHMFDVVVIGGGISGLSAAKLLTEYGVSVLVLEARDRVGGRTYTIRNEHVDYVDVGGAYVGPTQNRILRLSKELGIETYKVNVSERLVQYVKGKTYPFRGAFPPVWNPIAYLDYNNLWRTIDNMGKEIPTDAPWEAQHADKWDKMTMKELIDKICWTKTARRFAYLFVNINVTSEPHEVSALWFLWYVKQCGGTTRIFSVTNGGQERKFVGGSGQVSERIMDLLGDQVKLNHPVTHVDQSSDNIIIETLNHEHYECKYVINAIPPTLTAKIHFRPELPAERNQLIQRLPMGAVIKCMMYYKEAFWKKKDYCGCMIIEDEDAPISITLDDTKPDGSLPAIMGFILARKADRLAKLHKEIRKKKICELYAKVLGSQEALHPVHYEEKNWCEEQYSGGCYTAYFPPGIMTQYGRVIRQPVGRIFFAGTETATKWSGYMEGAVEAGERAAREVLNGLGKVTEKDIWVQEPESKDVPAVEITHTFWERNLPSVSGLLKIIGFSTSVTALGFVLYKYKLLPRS
Method: as §1, §2

MAO-B [2] = biological target: T3, MAO-B (Homo sapiens, UniProt P27338); assay: MAO-B inhibition (recombinant enzyme, benzylamine substrate); assay type: biochemical; details: for remaining activity at 10 µM: read-out: Residual Activity (%) MAO-B; for SI (selectivity index): for MAO-B as compared with MAO-A; for IC50: reference compounds after preincubation with enzymes for 30 min
T3 sequence (P27338 1-520): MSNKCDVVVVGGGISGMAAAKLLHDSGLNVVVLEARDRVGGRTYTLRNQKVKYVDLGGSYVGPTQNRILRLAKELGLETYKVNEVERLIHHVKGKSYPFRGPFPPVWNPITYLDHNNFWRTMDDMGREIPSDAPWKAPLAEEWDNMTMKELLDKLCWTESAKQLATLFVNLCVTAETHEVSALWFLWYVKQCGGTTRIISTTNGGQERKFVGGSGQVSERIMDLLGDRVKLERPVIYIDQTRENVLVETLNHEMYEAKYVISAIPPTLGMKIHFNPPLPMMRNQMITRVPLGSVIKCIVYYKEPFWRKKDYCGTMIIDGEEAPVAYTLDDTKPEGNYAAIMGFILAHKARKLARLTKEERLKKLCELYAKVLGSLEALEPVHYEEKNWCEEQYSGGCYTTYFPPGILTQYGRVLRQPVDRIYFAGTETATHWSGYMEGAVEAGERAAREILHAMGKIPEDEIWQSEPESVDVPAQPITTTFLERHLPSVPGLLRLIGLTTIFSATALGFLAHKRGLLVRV
Method: as §1, §2

[3] = PAMPA
Text: as §6

MAO-B [4] = biological target: T3, MAO-B; assay: MAO-B kinetic study (Lineweaver–Burk and secondary plots); assay type: biochemical; details: for Type of MAO-B inhibition: Lineweaver–Burk plots; for Ki: secondary plots of slopes vs. inhibitor concentrations
Method: MAO events were assessed with recombinant MAO-A and MAO-B, as well as the substrates kynuramine (0.06 mM) and benzylamine (0.3 mM). The kinetics of MAO-B were analyzed under 2.4 × Km (i.e., 0.051 mM) of benzylamine. BACE-1 was measured using a β-secretase (BACE-1) assay kit at 320 nm for excitation and 405 nm for emission using a fluorescence spectrometer. […] The IC50 value of CH5 for BACE-1 was also analyzed.
The inhibitory actions of the six molecules against MAO-A, MAO-B, and BACE-1 were first tested at 10 µM. Initially, the IC50 values of the compounds for MAOs were calculated. At three inhibitory concentrations and five substrate concentrations, kinetic tests were conducted on CH4 and CH5, which inhibited MAO-B most potently.
Kinetic experiments were carried out at five concentrations of the substrates and three inhibitor concentrations.

Vero cells = assay: ROS assay in H2O2-treated Vero cells; assay type: cell-based, African Green Monkey; details: Vero cells treated with H2O2; compounds at IC50 conc. (CH4 198.5 µg/mL, CH5 126.4 µg/mL)
Text: (§3) The lead molecules CH4 and CH5 in the current series were further evaluated for their cytotoxic nature and ROS scavenging ability by the previously reported procedure (Supplementary Material).
Our next attempt was to study the effect of CH4 and CH5 on inhibiting the excess reactive oxygen species (ROS) involved in the pathogenesis of neurodegenerative diseases. This ROS causes neuronal damage via oxidative damage in the brain during neurodegenerative diseases. We examined the intracellular ROS generation on Vero cell cultures after exposure to exogenous H2O2. […] Based on this observation, it is understood that the disruption of the balance between pro-oxidant and antioxidant levels can be retained by CH4 and CH5 at IC50 concentrations. […]
(§4) h. The end point was determined by the purple precipitation which was clearly seen under an inverted microscope. At the end, the medium along with MTT (220 µL) were used for the aspiration of the wells and later washed with 1X PBS (200 µL). […] The absorbance at 570 nm was measured using a micro plate reader (Thermo Fisher Scientific, USA). The IC50 value and the percentage cell viability was calculated using GraphPad Prism 8.0 software (USA). […]
(§5) DMEM medium and incubated at 37°C for 24 h. […] After the incubation period, the cells were treated with 100 µM/mL of 30% H2O2 and the production of ROS was evaluated immediately by fluorescence imaging system (ZOE, BIO-

[5] = In vitro toxicity, MTT cell viability assay; assay type: cell-based; details: African green monkey; for IC50 at 48 h: Vero cells (African green monkey kidney cell line), 1 to 500 µg/mL; for viability at 48 h: Vero cells (kidney cell line), read-out: Percentage of viable cells
Method: as §3
An in vitro toxicity evaluation of CH4 and CH5 was carried out using an MTT assay. We used the African Green Monkey kidney cell line (Vero) as a valuable in vitro model for basal toxicity studies. To check the toxicity of the tested compounds, the Vero cell line was incubated with different concentrations of CH4 and CH5 (1 to 500 µg/mL), and the relative cell viability was measured after 48 h. […] The result of the cell viability assay was represented as a dose–response curve using the GraphPad Prism 6.0 software (USA). […] The reduction in cell number and also the membrane damage were very evident in treatment with CH4 and CH5 at IC50 and higher concentrations, as analyzed by phase-contrast microscope. These two experiments strongly support that CH4 and CH5 are one hundred times safer than the effective concentration of one micromolar (Figure 3C and Figure 4C). […]
1.2. Cytotoxicity Studies
The cell line of Vero (African green monkey kidney cells) was procured from NCCS, Pune and were grown in liquid medium (DMEM) containing, 100 ug/mL penicillin, 100 µg/mL streptomycin, and 10% Fetal Bovine Serum (FBS) and preserved under an atmosphere of 5% CO2 at 37 °C. The CH4 and CH5 sample was assayed for in vitro cytotoxicity by MTT assay using the cultured Vero cells. Briefly, the cultured Vero cells were produced by cell dissociation with trypsin (trypsinization), collectively in a 15 mL tube. At a density of 1×10^5 cells/mL cells/well (200 µL) the cells were plated for 24-48 hour at 37°C into 96-well tissue culture plate in DMEM medium containing 10 % FBS and 1% antibiotic solution. The wells were washed with sterile Phosphate buffered saline and further allowed to react with varying concen-trations of the CH4 and CH5 sample in a serum free DMEM medium. The samples were triplicated and the cells were kept for incubation at 37°C for 24 h in a humidified 5% CO2 incubator. MTT (20 µL of 5 mg/mL) was added in-to each well after the incubation and the cells were incubated for another 2–4 […]
as §4, with “microscope.” for “microscope. At the end, the medium along with MTT (220 µL) were used for the aspiration of the wells and later washed with 1X PBS (200 µL).”
as §5

MAO-B [6] = biological target: T3, MAO-B; assay: MAO-B inhibitor reversibility analysis by dialysis; details: for Relative activity, dialyzed (AD): after dialysis; for Relative activity, dialyzed (AD) / Relative activity, undialyzed (AU): CH4 1.68 µM, CH5 0.92 µM, lazabemide […], pargyline 0.28 µM; for Reversibility of MAO-B inhibition: dialysis; for Relative activity, undialyzed (AU): preincubation 30 min
Method: Reversibility patterns were analyzed by comparing the activities of dialyzed (AD) and undialyzed (AU) samples [58].
The relative activities for undialyzed (AU) and dialyzed (AD) samples were compared to determine the reversibility patterns.

For `COc1cc(OC)c(C(=O)/C=C/c2ccc(Cl)cc2)c(OC)c1` [CH1, (E)-3-(4-chlorophenyl)-1-(2,4,6-trimethoxyphenyl)prop-2-en-1-one], the remaining activity at 10 µM (β-secretase (BACE-1)) was 61.3 ± 0.078%, the Papp [1] was 13.2 ± 0.33 ×10⁻⁶ cm/s and the remaining activity at 10 µM (recombinant MAO-A) was 90.1 ± 7.51%. It also gave a remaining activity at 10 µM (MAO-B [2]) of 70.7 ± 2.16%.
In the case of `CN1C(C(=O)Nc2ccccn2)=C(O)c2ccccc2S1(=O)=O` [Piroxicam], the “Prediction (CNS permeability class)” value [3] is reported as “CNS+/−”.
For `COc1cc(OC)c(C(=O)/C=C/c2ccc(Br)cc2)c(OC)c1` [CH2, (E)-3-(4-bromophenyl)-1-(2,4,6-trimethoxyphenyl)prop-2-en-1-one], the remaining activity at 10 µM (β-secretase (BACE-1)) was 57.2 ± 0.46%, the Papp [1] was 14.1 ± 0.8 ×10⁻⁶ cm/s and the remaining activity at 10 µM (recombinant MAO-A) was 92.4 ± 1.1%. The remaining activity at 10 µM (MAO-B [2]) was 84.3 ± 3%.
In the case of `COc1ccc(C(=O)/C=C/c2ccc(Cl)cc2)c(OC)c1OC` [CH4, (E)-3-(4-chlorophenyl)-1-(2,3,4-trimethoxyphenyl)prop-2-en-1-one], the remaining activity at 10 µM (β-secretase (BACE-1)) is reported as 54.3 ± 2.2%, the IC50 (β-secretase (BACE-1)) is reported as 13.6 ± 0.094 µM and the “Type of MAO-B inhibition” value (MAO-B [4]) is reported as “competitive inhibitors”. For the same molecule, the Ki (MAO-B [4]) was 0.68 ± 0.17 µM, the “Effect on ROS levels” value (Vero cells) was “decrease in ROS levels” and the IC50 at 48 h [5] was 198 µg/mL (≈ 596 µM). For the same molecule, the viability at 48 h ([5]; up to 200 µg/mL) was over 90%, the “Relative activity, dialyzed (AD)” value (MAO-B [6]) was 96.9% and the “Reversibility of MAO-B inhibition” value (MAO-B [6]) was “reversible inhibitors”. For the same molecule, the “Relative activity, undialyzed (AU)” value (MAO-B [6]) was 30.9%, the Papp [1] was 14.6 ± 0.26 ×10⁻⁶ cm/s and the remaining activity at 10 µM (recombinant MAO-A) was 63.7 ± 1.02%. For the same molecule, the IC50 (recombinant MAO-A) was 12.7 ± 0.23 µM, the “SI (selectivity index)” value (MAO-B [2]) was 15.1 and the IC50 (MAO-B [2]) was 0.84 ± 0.025 µM.
`COc1ccc(C(=O)/C=C/c2ccc(F)cc2)c(OC)c1OC` [CH6, (E)-3-(4-fluorophenyl)-1-(2,3,4-trimethoxyphenyl)prop-2-en-1-one] gave a remaining activity at 10 µM (β-secretase (BACE-1)) of 66.7 ± 0.45%, a Papp [1] of 15.2 ± 0.26 ×10⁻⁶ cm/s and a remaining activity at 10 µM (recombinant MAO-A) of 92.1 ± 0.75%. It also gave a remaining activity at 10 µM (MAO-B [2]) of 19.6 ± 2.17% and an IC50 (MAO-B [2]) of 4.17 ± 0.23 µM.
In the case of `COc1ccc(C(=O)/C=C/c2ccc(Br)cc2)c(OC)c1OC` [CH5, (E)-3-(4-bromophenyl)-1-(2,3,4-trimethoxyphenyl)prop-2-en-1-one], the remaining activity at 10 µM (β-secretase (BACE-1)) is reported as 64.3 ± 0.74%, the IC50 (β-secretase (BACE-1)) is reported as 19.8 ± 0.12 µM and the “Type of MAO-B inhibition” value (MAO-B [4]) is reported as “competitive inhibitors”. For the same molecule, the Ki (MAO-B [4]) was 0.31 ± 0.014 µM, the “Effect on ROS levels” value (Vero cells) was “decrease in ROS levels” and the IC50 at 48 h [5] was 126 µg/mL (≈ 335 µM). For the same molecule, the viability at 48 h ([5]; up to 100 times the effective concentration) was over 90%, the “Relative activity, dialyzed (AD)” value (MAO-B [6]) was 73.8% and the “Reversibility of MAO-B inhibition” value (MAO-B [6]) was “reversible inhibitors”. For the same molecule, the “Relative activity, undialyzed (AU)” value (MAO-B [6]) was 37.2%, the Papp [1] was 15.7 ± 0.22 ×10⁻⁶ cm/s and the remaining activity at 10 µM (recombinant MAO-A) was 66.7 ± 3.96%. For the same molecule, the IC50 (recombinant MAO-A) was 14.4 ± 1.1 µM, the “SI (selectivity index)” value (MAO-B [2]) was 31.3 and the IC50 (MAO-B [2]) was 0.46 ± 0.12 µM.
`COc1cc(OC)c(C(=O)/C=C/c2ccc(F)cc2)c(OC)c1` [CH3, (E)-3-(4-fluorophenyl)-1-(2,4,6-trimethoxyphenyl)prop-2-en-1-one] gave a remaining activity at 10 µM (β-secretase (BACE-1)) of 59.7 ± 0.077%, a Papp [1] of 15.3 ± 0.71 ×10⁻⁶ cm/s and a remaining activity at 10 µM (recombinant MAO-A) of 94.9 ± 7.19%. It also gave a remaining activity at 10 µM (MAO-B [2]) of 75.4 ± 0.27%.
